How the values were obtained:
barnyardgrass (BG) = assay: Ex5 PRE greenhouse, % control; format: in vivo, Echinochloa crus-galli; conditions: 28 DAT, g ai/ha by row: r10-26 2,4-DC 50/100/200 (3 rows each) + mesotrione 25/50/100 (cycling)
Experimental: Test compositions containing 2,4-DC Example 1C and mesotrione (Callisto® Herbicide, 40% active ingredient, Syngenta) and mixtures of 2-(2,4-dichlorophenyl)methyl-4,4-dimethyl-3-isoxazolidinone and mesotrione, were diluted with water to provide the appropriate test rate concentration.
The test weeds were barnyardgrass (BG) (Echinochloa crus-galli), jimsonweed (PA) (Datura stramonium), velvetleaf (VL) (Abutilon theophrasti), common cockelbur (CC) (Xanthium strumarium) and hairy beggarticks (HB) (Bidens pilosa). Crops included in the evaluation were field corn and sorghum.
For pre-emergence testing, four disposable fiber flats (6″ by 10″) for each rate of application of each herbicide solution were filled with top soil, to which seeds of each species were planted in furrows made by a template pressed on the top of the soil. The furrows with seeds were covered with soil and were watered well before application of the test compounds. Flats designated for treatment were placed in a spray chamber having a static platform and a movable sprayer and height of the spray nozzle was 10.5 inches above the soil level. Once the sprayer was calibrated using water for spray volume of 30 gallons per acre, flats were sprayed with sprayer at a speed to receive a coverage equivalent of 30 gallons per acre.
The application rates are those shown in Table 4 below for the individual herbicidal solutions and the herbicide compositions of the present invention. The pre-emergence flats were immediately placed in the greenhouse and watered lightly after treatment. Thereafter they were regularly watered and fertilized for the duration of the test. The control of weeds and injury to crops was evaluated in each experimental test at 28 days after treatment (DAT). […] Percent control was determined by a method similar to the 0 to 100 rating system disclosed in “Research Methods in Weed Science,” 2nd ed., B. Truelove, Ed.; Southern Weed Science Society; Auburn University, Auburn, Ala., 1977.

[1] = system: weeds; Sugarcane (var. CTC 20); assay: Ex17 PRE greenhouse; format: in vivo; conditions: weed and rate in the words
Experimental: In this example a study was conducted to determine weed efficacy and sugarcane injury when 2,4 DC or isoxaflutole are applied either alone or tank-mix as preemergence against the weeds: Ivyleaf morningglory (Ipomoea hederacea, IPOHE), hairy beggartickss (Bidens pilosa, BIDPI), yellow nutsedge (Cyperus esculentus, CYPES), large crabgrass (Digitaria sanguinalis, DIGSA), and redroot pigweed (Amaranthus retroflexus, AMARE). The crop tested in this study was Sugarcane (var. CTC 20).
To determine weed efficacy and sugarcane selectivity, 2,4 DC (SC 36%) and isoxaflutole (Balance Flexx®, 20%) were applied PRE either alone or as tank-mix partners at rates mentioned below. 2,4 DC was applied at 500, 750, and 1000 g ai/ha while isoxaflutole was applied at 80, 100, and 120 g ai/ha. […] Treatments were applied PRE to sugarcane (var. CTC 20), ivyleaf morningglory, hairy beggarticks, yellow nutsedge, large crabgrass, and redroot pigweed. Weed species were planted in fiber flats (6″×10″) containing Pennington soil. Soil was watered before application and watered lightly after application. Flats were watered and fertilized routinely after treatment application.

weeds [2] = assay: Ex18 PRE greenhouse; format: in vivo; conditions: weed and rate in the words
weeds [3] = assay: Ex21 PRE greenhouse; format: in vivo; conditions: 28 DAT, weed and rate in the words
Description: 2,4 DC (36.7% CS) was applied PRE at 0, 125, 170, 210, or 250 g ai/ha alone or as a tank-mix with S-metolachlor (Dual II Magnum®, 82.4%) at 0, 267, 534, 801, or 1070 g ai/ha. Pyroxasulfone plus fluthiacet-methyl (Anthem™, 23.3%) applied at 169.9 g ai/ha, and the tank-mix of mesotrione (Callisto®, 40%) at 123 g plus S-metolachlor (Dual II Magnum®, 82.4%) at 1252 g were included as standards for comparison. […] Thereafter flats were watered and fertilized routinely. Each treatment was replicated three times.

weeds; Sugarcane (CTC20) = assay: Ex23 PRE greenhouse; conditions: 28 DAT, weed and rate in the words
weeds [4] = assay: Ex24 PRE greenhouse; format: in vivo; conditions: weed and rate in the words
Description: The tested weeds include Giant foxtail (Setaria faberi, SETFA), green foxtail (Setaria virdis, SETVI), yellow foxtail (Setaria pumila, SETLU), black nightshade (Solanum nigrum, SOLNI), kochia (Kochia scoparia, KCHSC), redroot pigweed (Amaranthus retroflexus, AMARE), common ragweed (Ambrosia artemisiifolia, AMBEL), barnyardgrass (Echinochloa crus-galli, ECHCG), large crabgrass (Digitaria sanguinalis, DIGSA).
To determine PRE efficacy, five levels of 2,4 DC-21 (36.7% CS) 0, 125, 170, 210, or 250 g ai/ha and five levels of pyroxasulfone (KIH485-85WG) 0, 50, 65, 80, or 95 g ai/ha were applied either alone or as tank-mix. Additional treatments consisted of premix of pyroxasulfone plus fluthiacet-methyl (Anthem™ 23.3%) at 169.9 g ai/ha, S-metolachlor (Dual II Magnum®, 82.4%) at 1388 g, and tank-mix of mesotrione (Callisto®, 40%) at 123 g plus S-metolachlor at 1252 g. […] Treatments were applied before the emergence of black nightshade, giant foxtail, green foxtail, yellow foxtail, large crabgrass, kochia, redroot pigweed, common ragweed, and bamyardgrass. […] Flats were watered and fertilized routinely after treatment application. Each treatment was replicated three times.

weeds; canola, and wheat = assay: Ex30 PRE greenhouse; format: in vivo
Description: Treatments were applied before the emergence of Italian ryegrass, wild oat, blackgrass, littleseed canarygrass, common chickweed, common lambsquarters, corn poppy, silky windgrass, redroot pigweed, wild mustard, annual bluegrass, canola, and wheat. […] Flats were watered and fertilized routinely after treatment application.

CC1(C)CON(Cc2ccc(Cl)cc2Cl)C1=O [2,4-DC, 2-(2,4-dichlorophenyl)methyl-4,4-dimethyl-3-isoxazolidinone]
% Control BG (barnyardgrass (BG); r28-30 2,4-DC 50/100/200, r31-33 mesotrione 25/50/100, 50 g ai/ha): 97%
% Control BG (barnyardgrass (BG); r28-30 2,4-DC 50/100/200, r31-33 mesotrione 25/50/100, 100 g ai/ha): 99%
weed control in words [1]: Large crabgrass and redroot pigweed were controlled with 2,4 DC alone at 500 g or higher rates
weed control in words (weeds [2]): controlled goosegrass at ≥170 g ai/ha
weed control in words (weeds [3]): applied alone controlled (≥85% injury) common chickweed at all rates, bamyardgrass at ≥210 g ai/ha, and green foxtail at 250 g
weed control in words (weeds; Sugarcane (CTC20)): applied alone at ≥500 g ai/ha controlled (≥85% injury) large crabgrass and redroot pigweed
weed control in words (weeds [4]): alone controlled kochia at 210 g ai/ha, barnyardgrass and large crabgrass at 125 g, giant foxtail and green foxtail at 170 g
injury to canola (weeds; canola, and wheat; at 100 g): 11%
injury to wheat (weeds; canola, and wheat; at 200 g): 11%
weed control in words (weeds; canola, and wheat; weed and rate in the words): alone gave control of pigweed, corn poppy, and Italian ryegrass at ≥200 g ai/ha, wild oat at 400 g, blackgrass at ≥100 g, and common chickweed at all rates
